Assay results: PMC12163684, “Gunacins: Novel Benzo[g]chromene Derivatives from the Fungus Exobasidium sp. and Their Potent Anti-Leishmania and Trypanosoma Activities” (ACS Omega, 2025)
Where two headings read alike, the source gives them in different places.

Test system: RTL-W1 cell line
Assay: Cell viability assay with fluorescent indicators AB, CFDA-AM and NR
Format: cell-based, rainbow trout (Oncorhynchus mykiss)
Conditions: Oncorhynchus mykiss, 24 h exposure, n.d. = activity not detected at highest tested concentration 150 μM
Method: Cell viability assay was determined on cell line RTL-W1 (obtained from Eawag, Switzerland; liver tissue) of rainbow trout (Oncorhynchus mykiss) according to the modified procedure of Dayeh (2005). A combination of three fluorescent indicators, alamarBlue (AB), 5-carboxyfluorescein diacetate acetoxymethyl ester (CFDA-AM), and NR was used to assess different mechanisms of toxic action, evaluate the general cellular response and increase the sensitivity of the cytotoxicity tests. […] After 24 h of incubation in microculturing plates, the cells were exposed to concentration series of isolated compounds in 0.5% DMSO for another 24 h. After the exposition, the solutions were removed from individual wells followed by the washing step and the addition of 100 μL of a dye solution containing 0.625% AB and 0.4 μM CFDA-AM in […]. The cells were incubated at room temperature for 30 min, and the fluorescence was measured at excitation/emission wavelengths of 535/590 nm for the AB assay and 485/535 nm for the CFDA-AM assay. Afterward, the dye solution was removed, the cells were rinsed, and 100 μL of the NR solution was added (0.03 mg/mL in […]). After 60 min of incubation, the cells were rinsed twice, and NR was extracted from the cells using 150 μL of a solution consisting of 1% (v/v) glacial acetic acid in 50% (v/v) ethanol. The content of each well was repeatedly homogenized using a pipet, and the fluorescence was measured at excitation/emission wavelengths of 535/630 nm.

[1] = Alamar Blue, cellular metabolic activity, read-out: EC50 ± SEM RTL-W1 (AB)
[2] = CFDA-AM, cell membrane integrity, read-out: EC50 ± SEM RTL-W1 (CFDA)
[3] = Neutral Red, lysosomal membrane integrity, read-out: EC50 ± SEM RTL-W1 (NR)

Row | Compound | EC50 [1] [µM] | EC50 [2] [µM] | EC50 [3] [µM]
1 | COc1cc(O)c2c(c1)C(=O)C1=C(C2=O)[C@@H](OC(C)=O)[C@@H](O)[C@@H](C)O1 [Compound 1, (2R,3S,4R)-3,6-dihydroxy-8-methoxy-2-methyl-5,10-dioxo-3,4,5,10-tetrahydro-2H-benzo[g]chromen-4-yl acetate] | 0.5 | 0.8 ± 0.1 | 0.3
2 | COc1cc(O)c2c(c1)C(=O)C1=C(C2=O)[C@@H](O)[C@@H](OC(C)=O)[C@@H](C)O1 [Compound 5, (2R,3R,4R)-4,6-dihydroxy-8-methoxy-2-methyl-5,10-dioxo-3,4,5,10-tetrahydro-2H-benzo[g]chromen-3-yl acetate] | 2.5 ± 0.3 | 2.1 ± 0.1 | 0.9 ± 0.1
